Here are results for three compounds from PMC3366211, “Leishmanicidal Activity of Nine Novel Flavonoids from Delphinium staphisagria” (The Scientific World Journal, 2012).

In experiment [1] the test system is L. infantum promastigote forms. The experiment is described as follows: Promastigote forms assay. Format: cell-based, Leishmania infantum. To be noted: for IC50: 72 h; for SI Promastigote forms: IC50 macrophages/IC50 parasite form; for times SI exceeds the reference drug SI (all forms): extracellular and intracellular forms; for times SI exceeds the reference drug SI (all forms) / number of times that compound SI exceeds the reference drug SI, Promastigote forms: reference Glucantime; for number of times that compound SI exceeds the reference drug SI, Promastigote forms: in brackets. As to the method: (§1) The compounds obtained were dissolved in the culture medium, at dosages of 100, 50, 25, 10, and 1 μM. The effects of each compound against promastigote forms were tested at 72 hours using a Neubauer haemocytometric chamber. The antileishmanial effect is expressed as the IC50, that is, the concentration required to give 50% inhibition, calculated by linear regression analysis from the Kc values of the concentrations employed.

Experiment [2] relates to L. braziliensis axenic amastigote forms. The experiment is described as follows: Axenic amastigote forms assay. Format: cell-based, Leishmania braziliensis. To be noted: for IC50: 48 hours per method (72 h); for SI Axenic amastigote forms: IC50 macrophages/IC50 parasite form. As to the method: (§2) Axenic amastigotes forms of L. infantum and L. braziliensis were cultured following the methodology described previously by Moreno et al.. Thus, promastigote transformation to amastigotes was obtained after three days of culture in M199 medium (Invitrogen, Leiden, The Netherlands) supplemented with 10% heat-inactivated FCS, 1 g/L β-alanine, 100 mg/L L-asparagine, 200 mg/L sacarose, 50 mg/L sodium pyruvate, 320 mg/L malic acid, 40 mg/L fumaric acid, 70 mg/L succinic acid, 200 mg/L α-ketoglutaric acid, 300 mg/L citric acid, 1.1 g/L sodium bicarbonate, 5 g/L MES, 0.4 mg/L hemin, and 10 mg/L gentamicin pH 5.4 at 37°C. The effect of each compound against axenic amastigotes forms was tested at 48 hours using a Neubauer haemocytometric chamber. The antileishmanial effect is expressed as the IC50.

For experiment [3], the system named is L. infantum intracellular amastigote forms. In words: Intracellular amastigote forms assay in J774.2 macrophages. In kind it is cell-based, Leishmania infantum. To be noted: for IC50: L. infantum in J774.2 macrophages, 72 h; for SI Intracellular amastigote forms / number of times that compound SI exceeds the reference drug SI, Intracellular amastigote forms: L. infantum; for SI Intracellular amastigote forms: IC50 macrophages/IC50 parasite form; for number of times that compound SI exceeds the reference drug SI, Intracellular amastigote forms: in brackets, reference Glucantime. The procedure: (§3) Cells were seeded at a density of 1 × 10^4 cells/well in 24-well microplates (Nunc) with rounded coverslips on the bottom and cultured for 2 days. Afterwards the cells were infected in vitro with promastigote forms of L. infantum and L. braziliensis, at a ratio of 10 : 1 during 24 hours. The non-phagocytosed parasites were removed by washing, and then the drugs (at 1, 10, 25, 50, 100 μM) were added. Macrophages with the drugs were incubated for 72 hours at 37°C in 5% CO2.
(§4) Drug activity was determined on the basis of number of amastigotes in treated and untreated cultures in methanol-fixed and Giemsa-stained preparations. The number of amastigotes was determined by analyzing 200 host cells distributed in randomly chosen microscopic fields. The antileishmanial effect is expressed as the IC50 values are the means of three separate determinations.

Experiment [4] concerns L. infantum axenic amastigote forms. In words: Axenic amastigote forms assay. To be noted: for IC50: 48 hours per method (72 h); for SI Axenic amastigote forms: IC50 macrophages/IC50 parasite form; for number of times that compound SI exceeds the reference drug SI, Axenic amastigote forms: in brackets, reference Glucantime. Format: cell-based, Leishmania infantum. As to the method: as §2

Experiment [5] deals with L. braziliensis. The experiment is described as follows: Infection assay in J774.2 macrophages. In kind it is cell-based, Leishmania braziliensis. To be noted: IC25 concentration; for infection rate decrease, percentage of inhibition capacity: with respect to control. The procedure:
(§5) J774.2 macrophage cells were grown under the same conditions expressed in amastigote forms assay during two days. Afterwards, the cells were infected in vitro with promastigote forms of L. infantum and L. braziliensis, at a ratio of 10 : 1. The drugs (IC25 concentrations) were added immediately after infection and were incubated for 12 hours at 37°C in 5% CO2. The nonphagocytosed parasites and the drugs were removed by washing, and then the infected cultures were grown for 10 days in fresh medium. Fresh culture medium was added every 48 h. The drug activity was determined from the percentage of infected cells and the number of amastigotes per infected cell (in treated and untreated cultures) in methanol-fixed and Giemsa-stained preparations. The percentage of infected cells and the mean number of amastigotes per infected cell were determined by analyzing 200 host cells distributed in randomly chosen microscopic fields. Values are the average of three separate determinations.

Experiment [6] has as its system L. infantum. In words: Infection assay in J774.2 macrophages. In kind it is cell-based, Leishmania infantum. To be noted: IC25 concentration; for infection rate decrease, percentage of inhibition capacity: with respect to control. As to the method: as §5
In experiment [7] the test system is L. braziliensis intracellular amastigote forms. In words: Intracellular amastigote forms assay in J774.2 macrophages. In kind it is cell-based, Leishmania braziliensis. To be noted: for IC50: L. braziliensis in J774.2 macrophages, 72 h; for SI Intracellular amastigote forms / number of times that compound SI exceeds the reference drug SI, Intracellular amastigote forms: L. braziliensis; for SI Intracellular amastigote forms: IC50 macrophages/IC50 parasite form; for number of times that compound SI exceeds the reference drug SI, Intracellular amastigote forms: in brackets, reference Glucantime. As to the method:
as §3, §4

The test system of experiment [8] is L. braziliensis promastigote forms. In words: Promastigote forms assay. To be noted: for IC50: 72 h; for SI Promastigote forms: IC50 macrophages/IC50 parasite form; for number of times that compound SI exceeds the reference drug SI, Promastigote forms: in brackets, reference Glucantime. In kind it is cell-based, Leishmania braziliensis. As to the method:
as §1

In experiment [9] the test system is J774.2 macrophages. In words: Cytotoxicity test for macrophages (flow cytometry). In kind it is cell-based, BALB/c rat. To be noted: J774.2 macrophages after 72 h of culture, read-out: Macrophage toxicity IC50. As to the method: J774.2 macrophages (ECACC number 91051511) were originally obtained from a tumour in a female BALB/c […] in 1968. The cytotoxicity test for macrophages was performed according to the methodology of González et al.. After 72 hours of treatment, cell viability was determined by flow cytometry. Thus, 100 μL/well of propidium iodide solution ([…]) was added and incubated for 10 min at 28°C in darkness. Afterwards, 100 μL/well of fluorescein diacetate (100 ng/mL) was added and incubated under the same conditions. Finally, the cells were recovered by centrifugation at 400 g for 10 min and the precipitate washed with phosphate buffered saline (PBS). Flow cytometric analysis was performed with a FACSVantage flow cytometer (Becton Dickinson). The percentage viability was calculated in comparison with the control culture. The IC50 was calculated using linear regression analysis from the Kc values of the concentrations employed.

Experiment [10] concerns L. infantum promastigotes. In words: Metabolite excretion (1H-NMR). To be noted: IC25, 96 hours, vs control. In kind it is cell-based, Leishmania infantum. The procedure:
Cultures of L. infantum and L. braziliensis promastigotes (initial concentration 5 × 10^5 cells/mL) received IC25 concentrations of the compounds (except for control cultures). After incubation for 96 hours at 28°C, the cells were centrifuged at 400 g for 10 min. Then supernatants were collected to determine the excreted metabolites using ^1H-NMR, and, eventually, chemical displacements were expressed in parts per million (ppm), using sodium 2,2-dimethyl-2-silapentane-5-sulphonate as the reference signal. The chemical displacements used to identify the respective metabolites were consistent with those described by Fernández-Becerra et al.

The subject of experiment [11] is L. braziliensis promastigotes. The experiment is described as follows: Ultrastructural alterations (TEM). Format: cell-based, Leishmania braziliensis. To be noted: IC25, 96 hours. As to the method:
(§6) The parasites were cultured at a density of 5 × 10^5 cells/mL in MTL medium, and the cultures contained drugs at the IC25 concentration.
(§7) After 96 hours, those cultures were centrifuged at 400 g for 10 min, and the pellets produced were washed in PBS and then mixed with 2% (v/v) P-formaldehyde-glutaraldehyde in 0.05 M cacodylate buffer (pH 7.4) for 4 hours at 4°C. After that, the pellets were prepared for TEM employing the technique of González et al..

Experiment [12] deals with L. infantum promastigotes. The experiment is described as follows: Ultrastructural alterations (TEM). In kind it is cell-based, Leishmania infantum. To be noted: IC25, 96 hours. The procedure:
as §6, §7

Like-named read-outs stand apart in the source and are kept apart here.

On to “meglumine antimoniate [Glucantime, reference compound]”, for which the IC50 worked out at 18 ± 3.1 µM in [1]; 30.4 ± 6.1 µM in [2]; 30 ± 2.7 µM in experiment [3]; 24.2 ± 2.6 µM in [4]; 31.1 ± 3 µM in [7]; 25.6 ± 1.6 µM in experiment [8]. Also, the IC50 in experiment [9] came out at 15.2 ± 1.3 µM. For the same compound, the “SI Promastigote forms” value is 0.8 in experiment [1] and 0.6 in experiment [8]. The “SI Axenic amastigote forms” value in experiment [2] is recorded as 0.5; in [4] it was 0.6. In addition, in experiment [3], the “SI Intracellular amastigote forms” value is on record as 0.5. Besides, the “decrease of average number of amastigotes per infected macrophage cell” value in experiment [5] was 33%; in [6], 12%. Further, the “infection rate decrease, percentage of inhibition capacity” value in experiment [5] stood at 58%; in experiment [6], 63%.
For the compound `CC(=O)O[C@H]1[C@H](Oc2c(-c3ccc(O)cc3)oc3cc(O[C@@H]4O[C@H](CO)[C@@H](O)[C@H](O)[C@H]4O)cc(O)c3c2=O)O[C@H](CO)[C@@H](O)[C@@H]1O` [Compound 5, 2′′-acetylpaeonoside], the “change in excreted catabolites” value in experiment [10] was “an increase in the excretion of succinate, and acetate, followed by malate, alanine, lactate and ethanol”. In addition, the “SI Promastigote forms” value came to 40.7 in experiment [1] and 29.3 in experiment [8]. The concentration for half-maximal inhibition (IC50) stood at 24.6 ± 3.7 µM in experiment [1] (Leishmania infantum); 19.4 ± 0.9 µM in experiment [2] (Leishmania braziliensis); 37.2 ± 3.5 µM in experiment [3] (Leishmania infantum); 29.8 ± 2.2 µM in [4] (Leishmania infantum); 50.9 ± 6.2 µM in experiment [7] (Leishmania braziliensis); 34.1 ± 6.6 µM in experiment [8] (Leishmania braziliensis). In addition, the “times SI exceeds the reference drug SI (all forms)” value in experiment [1] is “more than 50 times”. Moreover, the results for the “number of times that compound SI exceeds the reference drug SI, Promastigote forms” value in [1] and in experiment [8] were 51 and 49, respectively. Also, the “ultrastructural alterations by TEM” value was “no significant changes compared to the control” in experiment [11] and “produced similar effects” in experiment [12]. The “SI Intracellular amastigote forms” value in [3] is 26.9; in experiment [7], 20.0. Also, the entries for the “number of times that compound SI exceeds the reference drug SI, Intracellular amastigote forms” value in experiment [3] and in [7] were 54 and 40, respectively. For the same compound, the “SI Axenic amastigote forms” value in experiment [4] is listed as 33.6. For the same compound, in [4], the “number of times that compound SI exceeds the reference drug SI, Axenic amastigote forms” value came out at 56. Also, the entries for the “decrease of average number of amastigotes per infected macrophage cell” value in experiment [5] and in experiment [6] were 72% and 45%, respectively. For the same compound, the “infection rate decrease, percentage of inhibition capacity” value in experiment [5] and in experiment [6] was 79% in each case.
On to `CC(=O)OC[C@H]1O[C@@H](Oc2c(-c3ccc(OC(C)=O)c(OC(C)=O)c3)oc3cc(O[C@@H]4O[C@@H](C)[C@H](OC(C)=O)[C@@H](OC(C)=O)[C@H]4OC(C)=O)cc(OC(C)=O)c3c2=O)[C@H](OC(C)=O)[C@@H](OC(C)=O)[C@@H]1OC(C)=O` [Compound 9, petiolaroside decacetate], for which the “SI Promastigote forms” value turned out to be 21.5 in [1] and 15.2 in [8]. The IC50 in experiment [1] (Leishmania infantum) was found to be 22.8 ± 1.7 µM; in experiment [2] (Leishmania braziliensis), 24.6 ± 1.3 µM; in experiment [3] (Leishmania infantum), 31 ± 1.7 µM; in [4] (Leishmania infantum), 21.5 ± 0.9 µM; in experiment [7] (Leishmania braziliensis) it was 21 ± 1.3 µM; in experiment [8] (Leishmania braziliensis), 32.3 ± 3.3 µM. Further, the IC50 in experiment [9] (Mus musculus, J774.2, 72 h) is 490 ± 22.4 µM. In addition, the “times SI exceeds the reference drug SI (all forms)” value in [1] was less than 50 times. In addition, the figures for the “number of times that compound SI exceeds the reference drug SI, Promastigote forms” value in experiment [1] and in experiment [8] were 27 and 25, respectively. Besides, the entries for the “SI Axenic amastigote forms” value in experiment [2] and in experiment [4] were 19.9 and 22.8, respectively. For the same compound, the “number of times that compound SI exceeds the reference drug SI, Axenic amastigote forms” value in experiment [2] (in brackets, reference Glucantime) was 40; in [4] it was 38. Further, the “SI Intracellular amastigote forms” value was 15.8 in experiment [3] and 23.3 in [7]. In addition, the “number of times that compound SI exceeds the reference drug SI, Intracellular amastigote forms” value came out at 32 in experiment [3] and 47 in [7].
